From PubChem BioAssay AID330 (DTP/NCI, 2004)
Several values for one entry are separate records, joined by “and”; a condition that tells them apart may be missing. Equal values may be shown once. Toxic doses and inconclusive results are not listed.

Test system: P388 leukemia ip, CD2F1 mice, survival T/C
Assay: NCI In Vivo Anticancer Drug Screen. Data for tumor model P388 Leukemia (intraperitoneal) in CD2F1 (CDF1) mice
Details: endpoint: median survival time, higher = longer survival
Summary of the method: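 Mice carrying the transplanted tumor received test compound or vehicle. Survival was recorded in each group, and the value is the treated-group measurement divided by that of the vehicle-treated control group.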

[1] = dose: 60.0 mg/kg/injection, schedule: Q01DX005 (ip), vehicle: saline with Tween-80
[2] = dose: 120.0 mg/kg/injection, schedule: Q01DX005 (ip), vehicle: saline with Tween-80
[3] = dose: 100.0 mg/kg/injection, schedule: Q04DX003 (ip), vehicle: saline with Tween-80
[4] = dose: 200.0 mg/kg/injection, schedule: Q04DX003 (ip), vehicle: saline with Tween-80
[5] = dose: 50.0 mg/kg/injection, schedule: Q01DX005 (ip), vehicle: saline with Tween-80
[6] = dose: 100.0 mg/kg/injection, schedule: Q01DX005 (ip), vehicle: saline with Tween-80
[7] = dose: 200.0 mg/kg/injection, schedule: Q01DX005 (ip), vehicle: saline with Tween-80
[8] = dose: 50.0 mg/kg/injection, schedule: Q01DX009 (ip), vehicle: saline with Tween-80
[9] = dose: 100.0 mg/kg/injection, schedule: Q01DX009 (ip), vehicle: saline with Tween-80
[10] = dose: 200.0 mg/kg/injection, schedule: Q01DX009 (ip), vehicle: saline with Tween-80
[11] = dose: 100.0 mg/kg/injection, schedule: Q04DX002 (ip), vehicle: Klucel (hydroxypropylcellulose) (HPC)
[12] = dose: 200.0 mg/kg/injection, schedule: Q04DX002 (ip), vehicle: Klucel (hydroxypropylcellulose) (HPC)
[13] = dose: 50.0 mg/kg/injection, schedule: Q01DX005 (ip), vehicle: Klucel (hydroxypropylcellulose) (HPC)
[14] = dose: 100.0 mg/kg/injection, schedule: Q01DX005 (ip), vehicle: Klucel (hydroxypropylcellulose) (HPC)
[15] = dose: 200.0 mg/kg/injection, schedule: Q01DX005 (ip), vehicle: Klucel (hydroxypropylcellulose) (HPC)
[16] = dose: 25.0 mg/kg/injection, schedule: Q01DX009 (ip), vehicle: saline with Tween-80

With `O=c1n2ccccc2nc2nc3ccccc3n12` the T/C [1] was 86 % of control and the T/C [2] was 86 % of control.

For `Cc1cc2nncn2c2nnnn12`, the T/C (dose: 6.25 mg/kg/injection, schedule: Q01DX005 (ip), vehicle: water) was 101 % of control, the T/C (dose: 12.5 mg/kg/injection, schedule: Q01DX005 (ip), vehicle: water) was 102 % of control and the T/C (dose: 25.0 mg/kg/injection, schedule: Q01DX005 (ip), vehicle: water) was 108 % of control. For the same compound, the T/C (dose: 50.0 mg/kg/injection, schedule: Q01DX005 (ip), vehicle: water) was 108 % of control, the T/C (dose: 100.0 mg/kg/injection, schedule: Q01DX005 (ip), vehicle: water) was 105 % of control and the T/C (dose: 200.0 mg/kg/injection, schedule: Q01DX005 (ip), vehicle: water) was 101 % of control.

`CC(=O)NC(Cc1cnc[nH]1)C(=O)O` (stereo not drawn) was tested, and the T/C [3] was 98 % of control, the T/C [4] was 99 % of control and the T/C (dose: 400.0 mg/kg/injection, schedule: Q04DX003 (ip), vehicle: saline with Tween-80) was 100 % of control.

With `NC(=S)n1nc(-c2ccccc2)c(N=Nc2ccccc2Cl)c1-c1ccccc1` the T/C [5] was 117 % of control, the T/C [6] was 111 % of control and the T/C [7] was 108 % of control.

`COc1ccccc1/C=C(/C)[N+](=O)[O-]` was tested, and the T/C (dose: 10.0 mg/kg/injection, schedule: Q01DX010 (ip), vehicle: saline) was 109 % of control, the T/C (dose: 14.0 mg/kg/injection, schedule: Q01DX010 (ip), vehicle: saline) was 90 % of control and the T/C (dose: 22.0 mg/kg/injection, schedule: Q01DX010 (ip), vehicle: saline) was 100 % of control. For the same compound, the T/C (dose: 33.0 mg/kg/injection, schedule: Q01DX010 (ip), vehicle: saline) was 109 % of control, the T/C (dose: 50.0 mg/kg/injection, schedule: Q01DX010 (ip), vehicle: saline) was 100 % of control and the T/C (dose: 75.0 mg/kg/injection, schedule: Q01DX010 (ip), vehicle: saline) was 118 % of control.

With `NNS(=O)(=O)c1ccccc1` the T/C [8] was 103 % of control and the T/C [9] was 103 % of control.

With `CC(C)(CO)COC1OCN(C(C)(C)C)CC1(C)C` (stereo not drawn) the T/C [8] was 100 % of control, the T/C [9] was 110 % of control and the T/C [10] was 112 % of control.

`CCOC(=O)c1n[nH]nc1Nc1cncc(Nc2n[nH]nc2C(=O)OCC)n1` was tested, and the T/C (dose: 60.0 mg/kg/injection, schedule: Q01DX005 (ip), vehicle: Klucel (hydroxypropylcellulose) (HPC)) was 102 % of control, the T/C (dose: 120.0 mg/kg/injection, schedule: Q01DX005 (ip), vehicle: Klucel (hydroxypropylcellulose) (HPC)) was 97 % of control and the T/C (dose: 240.0 mg/kg/injection, schedule: Q01DX005 (ip), vehicle: Klucel (hydroxypropylcellulose) (HPC)) was 97 % of control.

In the case of `N#CC(C#N)=C(C#N)C#N`, the T/C [3] is reported as 103 % of control and the T/C [4] is reported as 103 % of control.

`CC(=O)c1c(C(=O)O)n([O-])c2ccccc2[n+]1=O` was tested, and the T/C [5] was 97 % of control, the T/C [6] was 94 % of control and the T/C [7] was 112 % of control.

In the case of `Cc1cccc(CSCc2c(CSCc3cccc(C)c3)c(CSCc3cccc(C)c3)c(CSCc3cccc(C)c3)c(CSCc3cccc(C)c3)c2CSCc2cccc(C)c2)c1`, the T/C (dose: 100.0 mg/kg/injection, schedule: Q01DX001 (ip), vehicle: saline with Tween-80) is reported as 114 % of control, the T/C (dose: 200.0 mg/kg/injection, schedule: Q01DX001 (ip), vehicle: saline with Tween-80) is reported as 105 % of control and the T/C (dose: 400.0 mg/kg/injection, schedule: Q01DX001 (ip), vehicle: saline with Tween-80) is reported as 101 % of control.

For `COc1cccc2c1SCC/C2=N\OCC(O)CNC1CCCCC1` (stereo not drawn), the T/C [11] was 94 % of control and the T/C [12] was 94 % of control.

In the case of `CC(=O)N(O)c1ccc(C(N)=O)cc1`, the T/C (dose: 50.0 mg/kg/injection, schedule: Q01DX009 (ip), vehicle: saline) is reported as 99 % of control, the T/C (dose: 100.0 mg/kg/injection, schedule: Q01DX009 (ip), vehicle: saline) is reported as 106 % of control and the T/C (dose: 200.0 mg/kg/injection, schedule: Q01DX009 (ip), vehicle: saline) is reported as 106 % of control.

In the case of `CCc1ccc2c(-c3ccccc3)c3ccccc3c(-c3ccccc3)c2c1`, the T/C (dose: 12.5 mg/kg/injection, schedule: Q01DX005 (ip), vehicle: saline with Tween-80) is reported as 96 % of control, the T/C (dose: 25.0 mg/kg/injection, schedule: Q01DX005 (ip), vehicle: saline with Tween-80) is reported as 99 % of control and the T/C [5] is reported as 88 % of control and 90 % of control. The T/C [6] was 90 % of control and the T/C [7] was 88 % of control.

`CCOc1c(N=Nc2ccccc2Cl)c(-c2ccccc2)nn1C(N)=S` was tested, and the T/C [5] was 94 % of control, the T/C [6] was 90 % of control and the T/C [7] was 102 % of control.

For `COC(=O)c1cc(Cl)ccc1OCC(O)CNc1ccc(Cl)cc1C(=O)c1ccccc1` (stereo not drawn), the T/C [1] was 92 % of control, the T/C [2] was 100 % of control and the T/C (dose: 240.0 mg/kg/injection, schedule: Q01DX005 (ip), vehicle: saline with Tween-80) was 90 % of control.

In the case of `CN=C(NC1CCCCC1)c1ccc(NC(=O)c2ccc(C(=O)Nc3ccc(C(=NC)NC4CCCCC4)cc3)cc2)cc1`, the T/C (dose: 1.5 mg/kg/injection, schedule: Q01DX005 (ip), vehicle: saline with Tween-80) is reported as 100 % of control, the T/C (dose: 3.0 mg/kg/injection, schedule: Q01DX005 (ip), vehicle: saline with Tween-80) is reported as 100 % of control and the T/C (dose: 6.0 mg/kg/injection, schedule: Q01DX005 (ip), vehicle: saline with Tween-80) is reported as 112 % of control. For the same compound, the T/C (dose: 6.25 mg/kg/injection, schedule: Q01DX005 (ip), vehicle: saline with Tween-80) was 105 % of control.

`C=Cc1nc(N)nc(-c2ccc(C)cc2)n1` was tested, and the T/C [13] was 110 % of control, the T/C [14] was 111 % of control and the T/C [15] was 118 % of control.

With `CC(C)NC(=O)OCC#CCOC(=O)NC(C)C` the T/C [5] was 98 % of control, the T/C [6] was 90 % of control and the T/C [7] was 90 % of control.

`Cc1ccc2c(NCCCCCCCCNc3c4ccccc4nc4c(C)c(C)ccc34)c3ccccc3nc2c1C` was tested, and the T/C (dose: 10.0 mg/kg/injection, schedule: Q01DX009 (ip), vehicle: other) was 156 % of control.

For `C=C1CC2(CCCCC2c2ccccc2)OC1=O` (stereo not drawn), the T/C [11] was 97 % of control, the T/C [12] was 103 % of control and the T/C (dose: 400.0 mg/kg/injection, schedule: Q04DX002 (ip), vehicle: Klucel (hydroxypropylcellulose) (HPC)) was 103 % of control.

For `O=c1oc(-c2ccc(Cl)cc2)nc2cc(Cl)ccc12`, the T/C (dose: 6.25 mg/kg/injection, schedule: Q01DX009 (ip), vehicle: saline with Tween-80) was 96 % of control, the T/C (dose: 12.5 mg/kg/injection, schedule: Q01DX009 (ip), vehicle: saline with Tween-80) was 100 % of control and the T/C [16] was 100 % of control. For the same compound, the T/C [8] was 99 % of control.

`CCNc1ccc2ccccc2c1N=Nc1ccc(N=Nc2ccccc2)cc1` was tested, and the T/C [16] was 90 % of control, the T/C [8] was 90 % of control and 94 % of control and the T/C [9] was 95 % of control. The T/C [10] was 100 % of control.

With `N#Cc1c(-c2ccc(Cl)cc2)c(-c2ccc(Cl)cc2)n[nH]c1=O` the T/C [13] was 100 % of control, the T/C [14] was 99 % of control and the T/C [15] was 104 % of control.

In the case of `Cn1c2nc(=O)[nH]c(=O)c-2cc2ccccc21`, the T/C (dose: 25.0 mg/kg/injection, schedule: Q04DX003 (ip), vehicle: saline with Tween-80) is reported as 95 % of control, the T/C (dose: 50.0 mg/kg/injection, schedule: Q04DX003 (ip), vehicle: saline with Tween-80) is reported as 93 % of control and the T/C [3] is reported as 90 % of control. The T/C [4] was 94 % of control.

`CC(C)CN1CC(=O)N2CCCC(C)N2C(=O)C1` (stereo not drawn) was tested, and the T/C [5] was 100 % of control, the T/C [6] was 99 % of control and the T/C [7] was 102 % of control.

In the case of `CN(C)c1c([N+](=O)[O-])cc2[nH]cnc2c1[N+](=O)[O-]`, the T/C (dose: 3.12 mg/kg/injection, schedule: Q04DX003 (ip), vehicle: saline with Tween-80) is reported as 103 % of control, the T/C (dose: 6.25 mg/kg/injection, schedule: Q04DX003 (ip), vehicle: saline with Tween-80) is reported as 103 % of control and the T/C (dose: 12.5 mg/kg/injection, schedule: Q04DX003 (ip), vehicle: saline with Tween-80) is reported as 105 % of control.

In the case of `O=C(O)c1cscn1`, the T/C (dose: 60.0 mg/kg/injection, schedule: Q01DX005 (ip), vehicle: saline) is reported as 100 % of control, the T/C (dose: 120.0 mg/kg/injection, schedule: Q01DX005 (ip), vehicle: saline) is reported as 97 % of control and the T/C (dose: 240.0 mg/kg/injection, schedule: Q01DX005 (ip), vehicle: saline) is reported as 113 % of control.

In the case of `C=C(C)C1Cc2c(cc(OC)c3c(=O)c4cccc(O)c4oc23)O1` (stereo not drawn), the T/C (dose: 2.5 mg/kg/injection, schedule: Q01DX009 (ip), vehicle: distilled water + alcohol) is reported as 104 % of control, the T/C (dose: 5.0 mg/kg/injection, schedule: Q01DX009 (ip), vehicle: distilled water + alcohol) is reported as 101 % of control and the T/C (dose: 10.0 mg/kg/injection, schedule: Q01DX009 (ip), vehicle: distilled water + alcohol) is reported as 99 % of control.
